Legend:
Format in all cases: in vivo
Alopecurus myosuroidis = experiment: Greenhouse trial, post-emergence herbicidal action, visual scoring; details: 672 h, approx. 4 weeks after application
Protocol: (§1) The seeds of typical harmful plants and of typical cereal plants were sown, allowed to emerge and grown under greenhouse conditions. Treatment with the compositions according to the invention was carried out after emergence of the harmful plants generally at the 2- to 4-leaf stage at various dosages using a water application rate of 300 l/ha (converted).
(§2) After the treatment (approx. 4 weeks after application), the herbidical activity of the active compounds or active compound mixtures was scored visually by comparing the treated plots with untreated control plots. Damage and development of all above-ground parts of the plants was recorded. Scoring was done on a percentage scale (100% activity=all plants dead; 50% activity=50% of the plants and green plant parts dead; 0% activity=no discernible activity=like control plot).
(§3) The results are listed in the tables below, where the activity measured for the independent use of the active compounds A) and B) is stated in brackets and g of AS/ha means gram of active substance per hectare.

Lolium multiflorum = experiment: as above; details: 672 h, approx. 4 weeks after application
Protocol: as §1, §2, §3

Wheat = experiment: Greenhouse trial, post-emergence crop damage, visual scoring; details: approx. 4 weeks after application
Protocol: as §1, §2, §3

Fc1ccc([C@]2(Cn3cncn3)O[C@H]2c2ccccc2Cl)cc1 (racemic) [epoxiconazole]
0%: inhibition at 125 g/ha (Alopecurus myosuroidis; 125 g of AS/ha) | inhibition at 250 g/ha (Alopecurus myosuroidis; 250 g of AS/ha) | inhibition at 125 g/ha (Lolium multiflorum; 125 g of AS/ha) | inhibition at 250 g/ha (Lolium multiflorum; 250 g of AS/ha) | Wheat % damage (Wheat; 125 g of AS/ha) | Wheat % damage (Wheat; 250 g of AS/ha)
